# Laboratory results taken from patent US12448368B2, “Indole compounds as androgen receptor modulators” (NIDO BIOSCIENCES, INC., priority 2020, dated 2025).
# Target: T1, androgen receptor (AR) (Homo sapiens, UniProt P10275, T878A)
# T1 construct: LNCaP cells expressing ARR2PB-FireflyLuc and CMV-RenillaLuc; endogenous in cells; host or cells: LNCaP cells carrying ARR2PB-FireflyLuc and CMV-RenillaLuc reporters
# T1 sequence (P10275 1-920 T878A): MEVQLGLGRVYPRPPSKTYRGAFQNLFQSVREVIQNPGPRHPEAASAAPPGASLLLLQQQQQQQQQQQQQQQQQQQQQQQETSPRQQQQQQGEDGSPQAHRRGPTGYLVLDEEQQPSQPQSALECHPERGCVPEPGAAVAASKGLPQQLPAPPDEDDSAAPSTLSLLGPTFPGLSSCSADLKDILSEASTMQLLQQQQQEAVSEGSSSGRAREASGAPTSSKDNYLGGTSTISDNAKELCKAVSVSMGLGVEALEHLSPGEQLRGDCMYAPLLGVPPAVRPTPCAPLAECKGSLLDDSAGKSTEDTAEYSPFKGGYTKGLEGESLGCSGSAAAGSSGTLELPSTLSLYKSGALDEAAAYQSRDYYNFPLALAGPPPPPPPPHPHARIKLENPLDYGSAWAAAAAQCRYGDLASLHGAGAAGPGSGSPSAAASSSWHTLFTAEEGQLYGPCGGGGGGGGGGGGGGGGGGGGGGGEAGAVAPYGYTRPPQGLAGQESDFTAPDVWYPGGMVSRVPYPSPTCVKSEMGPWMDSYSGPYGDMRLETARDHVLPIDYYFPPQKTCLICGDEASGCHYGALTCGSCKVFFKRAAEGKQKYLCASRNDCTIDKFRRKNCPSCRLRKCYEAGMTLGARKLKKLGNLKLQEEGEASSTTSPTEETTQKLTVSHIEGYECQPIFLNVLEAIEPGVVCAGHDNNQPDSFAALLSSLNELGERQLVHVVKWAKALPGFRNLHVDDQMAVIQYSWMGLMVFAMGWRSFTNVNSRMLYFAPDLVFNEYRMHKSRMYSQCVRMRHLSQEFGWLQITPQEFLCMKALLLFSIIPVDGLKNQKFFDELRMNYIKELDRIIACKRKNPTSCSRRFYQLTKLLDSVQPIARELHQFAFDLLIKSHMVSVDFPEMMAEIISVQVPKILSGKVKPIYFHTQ
# Assay: AR reporter assay in LNCaP cells expressing ARR2PB-FireflyLuc and CMV-RenillaLuc, antagonist mode (% remaining activity, IC50)
# Format: cell-based
# Conditions: 48 h at 37° C., class symbols A-D, read-out: IC50
# Protocol: LNCaP cells expressing ARR2PB-FireflyLuc and CMV-RenillaLuc were treated with indicated concentrations of test compounds, enzalutamide (negative control), or DHT (positive control)+/−0.5 nM DHT for 48 h at 37° C. […] Remaining activity (antagonist mode) was calculated as % Remaining Activity=100×[(Readsample−LCave)/(HCave−LCave)] where HC is cells treated with 0.5 nM DHT only and LC is cells treated with 10 uM enzalutamide+0.5 nM DHT. Activation (agonist mode) was calculated as % Activation=100×[(ReadSample−LCave)/(HCave−LCave)] where HC is cells treated with 1 uM DHT and LC is cells treated with DMSO. Dose response curves and IC50 values were calculated using non-linear regression analysis in XLfit.
# The designation “A” indicates an IC50 value of >10 μM, “B” indicates an IC50 value between 1 μM and 10 μM; “C” indicates an IC50 value between 100 nM and 1 μM; and “D” indicates an IC50 value of less than 100 nM.
row,IC50 [nM],Structure (SMILES)
1,1000 to 10000,CNC(=O)N1CCCc2nc(-c3n[nH]c4cc(F)c(F)cc34)ccc21 [Compound 38]
2,1000 to 10000,Fc1cc2[nH]nc(-c3ccc4c(n3)COCC4)c2cc1F [Compound 39]
3,1000 to 10000,Fc1cc2[nH]nc(-c3ccc4c(n3)CCOC4)c2cc1F [Compound 40]
4,1000 to 10000,O=C1NCc2nc(-c3n[nH]c4cc(F)c(F)cc34)ccc21 [Compound 41]
5,1000 to 10000,CN1Cc2nc(-c3n[nH]c4cc(F)c(F)cc34)ccc2C1=O [Compound 42]
6,100 to 1000,Cc1cc(F)cc2c(-c3ccc4c(n3)CCCN4)n[nH]c12 [Compound 43]
7,100 to 1000,Cc1cc2[nH]nc(-c3ccc4c(n3)CCCN4)c2cc1F [Compound 44]
8,100 to 1000,Cc1cc2c(-c3ccc4c(n3)CCCN4)n[nH]c2cc1F [Compound 45]
9,< 100,CC1CCNc2ccc(-c3n[nH]c4cc(F)c(F)cc34)nc21 (stereo not shown) [Compound 46]
10,1000 to 10000,CC1CCNc2cnc(-c3n[nH]c4cc(F)c(F)cc34)cc21 (stereo not shown) [Compound 49]
11,100 to 1000,CC1(C)CCNc2ccc(-c3n[nH]c4cc(F)c(F)cc34)nc21 [Compound 50]
12,100 to 1000,CC1NC(=O)c2ccc(-c3n[nH]c4cc(F)c(F)cc34)nc21 (stereo not shown) [Compound 51]
13,100 to 1000,CC1(C)NC(=O)c2ccc(-c3n[nH]c4cc(F)c(F)cc34)nc21 [Compound 52]
14,1000 to 10000,Cc1nc(-c2n[nH]c3cc(F)c(F)cc23)ccc1N [Compound 53]
15,100 to 1000,CCc1nc(-c2n[nH]c3cc(F)c(F)cc23)ccc1N [Compound 54]
16,> 10000,Fc1cc2[nH]nc(-c3ncc4c(n3)CCCN4)c2cc1F [Compound 55]
17,1000 to 10000,Fc1cc2[nH]nc(-c3cc4c(cn3)NCCC4)c2cc1F [Compound 56]
18,> 10000,c1ccc2c(-c3cnc4c(c3)NCCC4)n[nH]c2c1 [Compound 57]
19,> 10000,Fc1cc2[nH]nc(-c3cnc4c(n3)CCCN4)c2cc1F [Compound 58]
20,100 to 1000,Cc1cc(-c2n[nH]c3cc(F)c(F)cc23)nc2c1NCCC2 [Compound 59]
21,> 10000,CC1(C)CCNc2cnc(-c3n[nH]c4cc(F)c(F)cc34)cc21 [Compound 60]
22,1000 to 10000,FC(F)(F)c1ccc(-c2n[nH]c3ccccc23)nc1 [Compound 61]
23,1000 to 10000,Fc1ccc(-c2n[nH]c3ccccc23)nc1 [Compound 62]
24,< 100,N#Cc1cccc2c(-c3ccc4ccc(F)cc4n3)n[nH]c12 [Compound 63]
25,> 10000,c1ccc2c(-c3cc(N4CCNCC4)ccn3)n[nH]c2c1 [Compound 66]

row,IC50 [nM],Structure (SMILES)
1,> 10000,CN1CCN(c2ccnc(-c3n[nH]c4ccccc34)c2)CC1 [Compound 67]
2,> 10000,CN1CCN(c2cccc(-c3n[nH]c4ccccc34)n2)CC1 [Compound 68]
3,> 10000,Fc1cc2[nH]nc(-c3ccc4c(n3)OCCN4)c2cc1F [Compound 69]
4,> 10000,CC1CNc2ccc(-c3n[nH]c4cc(F)c(F)cc34)nc2O1 (stereo not shown) [Compound 70]
5,> 10000,CC(C)(O)c1ccc(-c2n[nH]c3cc(F)c(F)cc23)nc1 [Compound 72]
6,> 10000,CC(C)(O)c1ccc(-c2n[nH]c3cc(F)c(F)cc23)cn1 [Compound 73]
7,1000 to 10000,Fc1cc2[nH]nc(-c3ccc4c(n3)NCCO4)c2cc1F [Compound 74]
8,1000 to 10000,CN1CCOc2ccc(-c3n[nH]c4cc(F)c(F)cc34)nc21 [Compound 75]
9,1000 to 10000,CC(C)N1CCOc2ccc(-c3n[nH]c4cc(F)c(F)cc34)nc21 [Compound 76]
10,100 to 1000,CC1(C)CCNc2ccc(-c3n[nH]c4ccccc34)nc21 [Compound 77]
11,100 to 1000,CC1(C)CCNc2ccc(-c3n[nH]c4ccc(F)cc34)nc21 [Compound 78]
12,> 10000,CCOC(=O)c1coc(-c2n[nH]c3c(C)cccc23)n1 [Compound 79]
13,1000 to 10000,Cc1cc(-c2n[nH]c3cc(F)c(F)cc23)nc2c1NC(=O)CC2 [Compound 80]
14,> 10000,c1ccc(-c2cc(-c3ccc4c(n3)CCCN4)n[nH]2)cc1 [Compound 81]
15,> 10000,Cc1[nH]nc(-c2ccc3c(n2)CCCN3)c1C [Compound 82]
16,> 10000,c1cc2c(nc1-c1n[nH]c3c1COCC3)CCCN2 [Compound 83]
17,> 10000,c1ccc(-c2cc(-c3ccc4c(n3)CCCN4)n[nH]2)nc1 [Compound 84]
18,> 10000,N#Cc1cccc2c(-c3ccc4ncccc4n3)nn(C3CCCCO3)c12 (stereo not shown) [Compound 85]
19,100 to 1000,NCc1cccc2c(-c3ccc4ncccc4n3)n[nH]c12 [Compound 86]
20,1000 to 10000,CC(C)NCc1cccc2c(-c3ccc4ncccc4n3)n[nH]c12 [Compound 87]
21,1000 to 10000,CC(C)c1nc(-c2n[nH]c3cc(F)c(F)cc23)ccc1N [Compound 88]
22,1000 to 10000,CC(C)Oc1nc(-c2n[nH]c3cc(F)c(F)cc23)ccc1N [Compound 89]
23,1000 to 10000,CCOc1nc(-c2n[nH]c3cc(F)c(F)cc23)ccc1N [Compound 90]
24,100 to 1000,COc1nc(-c2n[nH]c3cc(F)c(F)cc23)ccc1N [Compound 91]
25,100 to 1000,Nc1ccc(-c2n[nH]c3cc(F)c(F)cc23)nc1C(F)(F)F [Compound 92]

row,IC50 [nM],Structure (SMILES)
1,100 to 1000,Nc1ccc(-c2n[nH]c3cc(F)c(F)cc23)nc1Cl [Compound 93]
2,1000 to 10000,CNc1ccc(-c2n[nH]c3cc(F)c(F)cc23)nc1C [Compound 94]
3,1000 to 10000,CCNc1ccc(-c2n[nH]c3cc(F)c(F)cc23)nc1C [Compound 95]
4,> 10000,CC(=O)Nc1ccc(-c2n[nH]c3cc(F)c(F)cc23)nc1C [Compound 96]
5,> 10000,CC(=O)N(C)c1ccc(-c2n[nH]c3cc(F)c(F)cc23)nc1C [Compound 97]
6,1000 to 10000,Cc1nc(-c2n[nH]c3cc(F)c(F)cc23)ccc1N(C)C [Compound 98]
7,100 to 1000,COc1ccc(-c2n[nH]c3cc(F)c(F)cc23)nc1C [Compound 99]
8,> 10000,CNC(=O)c1ccc(-c2n[nH]c3cc(F)c(F)cc23)nc1C [Compound 100]
9,> 10000,Cc1nc(-c2n[nH]c3cc(F)c(F)cc23)ccc1C(N)=O [Compound 101]
10,> 10000,Cc1nc(-c2n[nH]c3cc(F)c(F)cc23)ccc1C(=O)N(C)C [Compound 102]
11,< 100,Cc1nc(-c2n[nH]c3cc(F)c(F)cc23)ccc1C#N [Compound 103]
12,100 to 1000,CC1c2nc(-c3n[nH]c4cc(F)c(F)cc34)ccc2C(=O)N1C (stereo not shown) [Compound 104]
13,> 10000,CC1NC(=O)c2ccc(-c3nn(C)c4cc(F)c(F)cc34)nc21 (stereo not shown) [Compound 105]
14,> 10000,COc1ccc(CN2C(=O)c3ccc(-n4ncc5cc(F)c(F)cc54)nc3C2C)cc1 (stereo not shown) [Compound 106]
15,> 10000,CC1NC(=O)c2ccc(-n3ncc4cc(F)c(F)cc43)nc21 (stereo not shown) [Compound 107]
16,> 10000,CC1NC(=O)c2ccc(-n3cnc4cc(F)c(F)cc43)nc21 (stereo not shown) [Compound 108]
17,100 to 1000,CC1NC(=O)c2ccc(-c3n[nH]c4ccccc34)cc21 (stereo not shown) [Compound 109]
18,> 10000,CC1(C)NC(=O)c2ccc(-c3n[nH]c4cc(F)c(F)cc34)cc21 [Compound 110]
19,100 to 1000,Fc1ccc(-c2n[nH]c3cc(F)ccc23)nc1 [Compound 111]
20,> 10000,Fc1ccc(-c2n[nH]c3cccnc23)nc1 [Compound 112]
21,1000 to 10000,Fc1ccc(-c2n[nH]c3ncccc23)cc1 [Compound 113]
22,1000 to 10000,O=C1NCc2nc(-c3n[nH]c4ccccc34)ccc21 [Compound 114]
23,> 10000,O=S1(=O)CCNc2ccc(-c3n[nH]c4cc(F)c(F)cc34)nc21 [Compound 115]

row,Structure (SMILES),IC50 [nM]
1,c1ccc2c(-c3ccc(N4CCNCC4)cn3)n[nH]c2c1 [Compound 64],> 10000
2,CN1CCN(c2ccc(-c3n[nH]c4ccccc34)nc2)CC1 [Compound 65],> 10000
3,CC1(C)NCc2ccc(-c3n[nH]c4cc(F)c(F)cc34)nc21 [Compound 71],> 10000
